Experimental data reported in patent US20110117055A1, “Methods of Treating Hepatitis C Virus with Oxoacetamide Compounds” (priority 2009, published 2011).

System: HCV2aChLuc virus
Assay: In vitro HCVcc entry assay: HCV2aChLuc virus infection of Huh7 cells, Renilla luciferase read-out
Format: cell-based, HCV genotype 2a
Details: Hepatitis C virus, Huh-7, read-out: Activity class (IC50), tested according to the method of Example 3

SMILES | IC50 [µM]
CCN(CC)CCOc1ccc(C(=O)C(=O)Nc2cc(C(C)(C)C)cc(NS(C)(=O)=O)c2OC)c2ccccc12 [Compound 79] | > 0.5
COc1c(NC(=O)C(=O)c2ccc(Br)c3ccccc23)cc(C(C)(C)C)cc1NS(C)(=O)=O [Compound 128] | > 0.5
COc1c(NC(=O)C(=O)c2ccc(OCCN3CCCCC3)c3ccccc23)cc(C(C)(C)C)cc1NS(C)(=O)=O [Compound 111] | 0.005 to 0.5
COc1c(NC(=O)C(=O)c2ccc(OCC(N)=O)c3ccccc23)cc(C(C)(C)C)cc1NS(C)(=O)=O [Compound 85] | > 0.5
CC(C)Oc1ccc(C(C)(C)C)cc1NC(=O)C(=O)c1ccc(OCCN2CCOCC2)c2ccccc12 [Compound 42] | > 0.5
COc1ccc(I)cc1NC(=O)C(=O)c1ccc(OCCN2CCOCC2)c2ccccc12 [Compound 121] | 0.005 to 0.5
COc1c(NC(=O)C(=O)c2ccc(-c3ccc(N(C)C)nc3)c3ccccc23)cc(C(C)(C)C)cc1NS(C)(=O)=O [Compound 125] | > 0.5
COc1c(NC(=O)C(=O)c2ccc(OCCN3CCOCC3)c3ccccc23)cc(C(C)(C)C)cc1C(=O)N1CCN(C)CC1 [Compound 98] | > 0.5
CCOC(=O)N1CCN(CCOc2ccc(C(=O)C(=O)Nc3cc(C(C)(C)C)cc(NS(C)(=O)=O)c3OC)c3ccccc23)CC1 [Compound 52] | 0.005 to 0.5
O=C(N[C@@H]1C[C@H]2CC[C@@H]1C2)C(=O)c1ccc(OCCN2CCOCC2)c2ccccc12 [Compound 68] | > 0.5
COc1c(NC(=O)C(=O)c2ccc(OCCN3CCOCC3)c3ccccc23)cc(C(C)(C)C)cc1C(=O)N1CCN(CC2CC2)CC1 [Compound 100] | > 0.5
CC(C)(C)c1cc(NC(=O)C(=O)c2ccc(OCCN3CCOCC3)c3ccccc23)no1 [Compound 60] | > 0.5
CC1(C)[C@@H]2CC[C@@]1(C)[C@@H](NC(=O)C(=O)c1ccc(OCCN3CCOCC3)c3ccccc13)C2 [Compound 69] | > 0.5
COc1c(NC(=O)C(=O)c2ccc(OCCN3CCOCC3)c3cccc(Cl)c23)cc(C(C)(C)C)cc1NS(C)(=O)=O [Compound 76] | > 0.5
CC(C)(C)c1cc(NC(=O)C(=O)c2ccc(OCCN3CCOCC3)c3ccccc23)on1 [Compound 70] | > 0.5
COc1ccc(-n2nc(C(C)(C)C)cc2NC(=O)C(=O)c2ccc(OCCN3CCOCC3)c3ccccc23)cc1 [Compound 35] | > 0.5
COc1c(NC(=O)C(=O)c2ccc(OC)c3ccccc23)cc(C(C)(C)C)cc1C(N)=O [Compound 77] | > 0.5
COc1c(NC(=O)C(=O)c2ccc(OCCN3CCOCC3)c3ccccc23)cccc1NS(C)(=O)=O [Compound 110] | > 0.5
COc1c(NC(=O)C(=O)c2ccc(OCCN3CCOCC3)c3ccccc23)cc(C(C)(C)C)cc1N(CCN1CCOCC1)S(C)(=O)=O [Compound 117] | > 0.5
CC(C)(C)c1cc(NC(=O)C(=O)c2ccc(OCCN3CCOCC3)c3ccccc23)n(-c2ccccc2)n1 [Compound 34] | > 0.5
COC(=O)c1sc(C(C)(C)C)cc1NC(=O)C(=O)c1ccc(OCCN2CCOCC2)c2ccccc12 [Compound 11, methyl 5-tert-butyl-3-(2-(4-(2-morpholinoethoxy)naphthalen-1-yl)-2-oxoacetamido)thiophene-2-carboxylate] | < 0.005
CC(C)(C)c1cc(NC(=O)C(=O)c2ccc(OCCN3CCOCC3)c3ccccc23)cc(NS(C)(=O)=O)c1 [Compound 109] | 0.005 to 0.5
COc1c(NC(=O)C(=O)c2ccc(OCCN3CCOCC3)c3ccccc23)cc(C(C)(C)C)cc1-c1nnn[nH]1 [Compound 91] | > 0.5

SMILES | IC50 [µM]
COc1ccc(C2CCCCC2)cc1NC(=O)C(=O)c1ccc(OCCN2CCOCC2)c2ccccc12 [Compound 15, N-(5-cyclohexyl-2-methoxyphenyl)-2-(4-(2-morpholinoethoxy)naphthalen-1-yl)-2-oxoacetamide] | < 0.005
COc1c(NC(=O)C(=O)c2ccc(OCCN3CCN(C)CC3)c3ccccc23)cc(C(C)(C)C)cc1NS(C)(=O)=O [Compound 51] | > 0.5
COc1c(NC(=O)C(=O)c2ccc(OCCN3CCOCC3)c3ccccc23)cc(C(C)(C)C)cc1-n1ccnc1 [Compound 107] | 0.005 to 0.5
COc1c(NC(=O)C(=O)c2ccc(OCCN3CC(C)(C)OC(C)(C)C3)c3ccccc23)cc(C(C)(C)C)cc1NS(C)(=O)=O [Compound 96] | 0.005 to 0.5
COc1c(NC(=O)C(=O)c2ccc(OC)c3ccccc23)cc(C(C)(C)C)cc1C(=O)NCC1CC1 [Compound 17, 5-tert-butyl-N-(cyclopropylmethyl)-2-methoxy-3-(2-(4-methoxynaphthalen-1-yl)-2-oxoacetamido)benzamide] | < 0.005
CC(C)(C)c1ccc(NC(=O)C(=O)c2ccc(OCCN3CCOCC3)c3ccccc23)cc1 [Compound 32] | > 0.5
O=C(Nc1cc(Br)cnc1Cl)C(=O)c1ccc(OCCN2CCOCC2)c2ccccc12 [Compound 119] | 0.005 to 0.5
COc1c(C#N)cc(C(C)(C)C)cc1NC(=O)C(=O)c1ccc(Nc2ccnc(N3CCCC3)n2)c2ccccc12 [Compound 95] | > 0.5
CCCS(=O)(=O)Nc1cc(C(C)(C)C)cc(NC(=O)C(=O)c2ccc(OC)c3ccccc23)c1OC [Compound 78] | 0.005 to 0.5
CC(C)(C)c1cc(NC(=O)C(=O)c2ccc(OCCN3CCOCC3)c3ccccc23)c(O)c(C(N)=O)c1 [Compound 33] | > 0.5
CNc1ccc(-c2ccc(C(=O)C(=O)Nc3cc(C(C)(C)C)cc(C(N)=O)c3OC)c3ccccc23)cn1 [Compound 137] | < 0.005
COc1c(NC(=O)C(=O)c2ccc(OCCN3CCN(C(=O)OC(C)(C)C)CC3)c3ccccc23)cc(C(C)(C)C)cc1NS(C)(=O)=O [Compound 56] | 0.005 to 0.5
COc1c(NC(=O)C(=O)c2ccc(OCCN3CCOCC3)c3ccccc23)cc(C(C)(C)C)cc1C(=O)N1CCCCC1 [Compound 25] | 0.005 to 0.5
Cc1ccc(Cl)cc1NC(=O)C(=O)c1ccc(OCCN2CCOCC2)c2ccccc12 [Compound 112] | > 0.5
Cc1ccc(C(C)C)cc1NC(=O)C(=O)c1ccc(OCCN2CCOCC2)c2ccccc12 [Compound 62] | 0.005 to 0.5
COc1ccc(C(C)(C)c2ccccc2)cc1NC(=O)C(=O)c1ccc(OCCN2CCOCC2)c2ccccc12 [Compound 16, N-(2-methoxy-5-(2-phenylpropan-2-yl)phenyl)-2-(4-(2-morpholinoethoxy)naphthalen-1-yl)-2-oxoacetamide] | < 0.005
COc1c(NC(=O)C(=O)c2ccc(OCCN(CCO)CCO)c3ccccc23)cc(C(C)(C)C)cc1NS(C)(=O)=O [Compound 3, 2-(4-(2-(bis(2-hydroxyethyl)amino)ethoxy)-naphthalen-1-yl)-N-(5-tert-butyl-2-methoxy-3-(methylsulfonamido)phenyl)-2-oxoacetamide] | < 0.005
CNc1ccc(-c2ccc(C(=O)C(=O)Nc3cc(C(C)(C)C)cc(NS(C)(=O)=O)c3OC)c3ccccc23)cn1 [Compound 131] | > 0.5
O=C(Nc1ccc2c(c1)OCCO2)C(=O)c1ccc(OCCN2CCOCC2)c2ccccc12 [Compound 90] | > 0.5
Cc1ccc(-n2nc(C(C)(C)C)cc2NC(=O)C(=O)c2ccc(CCN3CCNCC3)c3ccccc23)cc1 [Compound 39] | > 0.5
Cn1nc(C(C)(C)C)cc1NC(=O)C(=O)c1ccc(OCCN2CCOCC2)c2ccccc12 [Compound 50] | > 0.5
CC(C)(C)c1cc(NC(=O)C(=O)c2ccc(OCCN3CCOCC3)c3ccccc23)n(C(C)(C)C)n1 [Compound 59] | > 0.5
